Ki data for 27 compounds are collected here from patent publication US7109354B2, “Thiophene amidines, compositions thereof, and methods of treating complement-mediated diseases and conditions” (3-Dimensional Pharmaceuticals, Inc., priority 2002, dated 2006).

Molecules are shown by their SMILES. Structures can show the parent of a compound that is named as a salt.

This test addresses T1, Activated human C1s (Homo sapiens, UniProt P09871).
T1 construct: purchased Calbiochem (La Jolla, Calif.)
T1 sequence (P09871 438-688 limits assumed): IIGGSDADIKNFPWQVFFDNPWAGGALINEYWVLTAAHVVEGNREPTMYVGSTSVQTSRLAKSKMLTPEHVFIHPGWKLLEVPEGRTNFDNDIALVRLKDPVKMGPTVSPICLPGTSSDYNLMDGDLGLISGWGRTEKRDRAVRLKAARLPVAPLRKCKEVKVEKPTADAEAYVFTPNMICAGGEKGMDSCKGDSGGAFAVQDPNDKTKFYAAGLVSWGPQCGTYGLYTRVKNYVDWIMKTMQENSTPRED
T1 sequence (P09871 16-437 partner limits assumed): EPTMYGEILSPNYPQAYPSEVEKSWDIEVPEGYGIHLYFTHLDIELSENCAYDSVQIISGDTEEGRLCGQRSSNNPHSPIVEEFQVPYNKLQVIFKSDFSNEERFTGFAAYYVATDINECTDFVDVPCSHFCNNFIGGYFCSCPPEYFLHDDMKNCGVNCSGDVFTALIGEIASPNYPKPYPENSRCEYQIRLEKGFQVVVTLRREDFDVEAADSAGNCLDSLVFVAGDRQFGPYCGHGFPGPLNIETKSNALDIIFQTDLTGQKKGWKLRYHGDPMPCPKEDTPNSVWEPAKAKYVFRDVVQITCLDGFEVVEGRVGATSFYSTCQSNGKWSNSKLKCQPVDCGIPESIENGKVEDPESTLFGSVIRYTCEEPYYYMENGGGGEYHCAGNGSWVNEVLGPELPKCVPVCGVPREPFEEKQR
In words: In vitro inhibition of C1s (Ki determination, C1s-catalyzed hydrolysis of Z-Gly-Arg-S-Bzl, DTNB readout). It is filed as biochemical. Particulars: substrate Z-Gly-Arg-S-Bzl 45 μM, DTNB 200 μM, C1s 2.3 nM, pH 7.5, 37° C., absorbance at 405 nm.
A word on the Ki: it is the dissociation constant of the complex between target and ligand, obtained from inhibition or displacement. A high value points to weaker binding. `CSc1sc(C(=N)N)cc1S(=O)(=O)c1cccc(-c2c(C)noc2C)c1` [Example 89, 4-[3-(3,5-dimethyl-isoxazol-4-yl)-benzenesulfonyl]-5-methylsulfanyl-thiophene-2-carboxamidine] returned a Ki of 6 to 23 nM.
The compound `CSc1sc(C(=N)N)cc1S(=O)(=O)c1cccc(-c2ccccc2C)c1` [Example 90, 4-(2′-methyl-biphenyl-3-sulfonyl)-5-methylsulfanyl-thiophene-2-carboxamidine] registered an inhibition constant (Ki) of 6 to 23 nM.
Turning to `CSc1sc(C(=N)N)cc1S(=O)(=O)c1cccc(-c2cccc3ccccc23)c1` [Example 91, 5-methylsulfanyl-4-(3-naphthalen-1-yl-benzenesulfonyl)-thiophene-2-carboxamidine], the Ki was 6 to 23 nM.
Under `CSc1sc(C(=N)N)cc1S(=O)(=O)c1cccc(-c2ccc(Cl)s2)c1` [Example 92, 4-[3-(5-Chloro-thiophen-2-yl)-benzenesulfonyl]-5-methylsulfanyl-thiophene-2-carboxamidine] stands 6 to 23 nM; under `CSc1sc(C(=N)N)cc1S(=O)(=O)c1cccc(-c2ccccc2C=O)c1` [Example 93, 4-(2′-formyl-biphenyl-3-sulfonyl)-5-methylsulfanyl-thiophene-2-carboxamidine], 6 to 23 nM.
`C=Cc1ccc(-c2cccc(S(=O)(=O)c3cc(C(=N)N)sc3SC)c2)cc1` [Example 94, 5-methylsulfanyl-4-(4′-vinyl-biphenyl-3-sulfonyl)-thiophene-2-carboxamidine] registered an inhibitory constant (Ki) of 6 to 23 nM.
With `CCOc1cccc(-c2cccc(S(=O)(=O)c3cc(C(=N)N)sc3SC)c2)c1` [Example 95, 4-(3′-ethoxy-biphenyl-3-sulfonyl)-5-methylsulfanyl-thiophene-2-carboxamidine], the inhibition constant (Ki) was in the range of 6 to 23 nM.
On to `CSc1sc(C(=N)N)cc1S(=O)(=O)c1cccc(-c2c(C)cccc2C)c1` [Example 96, 4-(2′,6′-dimethyl-biphenyl-3-sulfonyl)-5-methylsulfanyl-thiophene-2-carboxamidine], for which the inhibition constant (Ki) lay within 6 to 23 nM.
Compound `CSc1sc(C(=N)N)cc1S(=O)(=O)c1cccc(-c2cccc(C(C)C)c2)c1` [Example 98, 4-(3′-isopropyl-biphenyl-3-sulfonyl)-5-methylsulfanyl-thiophene-2-carboxamidine] showed an inhibition constant (Ki) of 6 to 23 nM.
For the compound `CSc1sc(C(=N)N)cc1S(=O)(=O)c1cccc(-c2cccc(C)c2C)c1` [Example 99, 4-(2′,3′-dimethyl-biphenyl-3-sulfonyl)-5-methylsulfanyl-thiophene-2-carboxamidine], the Ki was in the range of 6 to 23 nM.
As to `CSc1sc(C(=N)N)cc1S(=O)(=O)c1cccc(-c2cccc(Cl)c2Cl)c1` [Example 100, 4-(2′,3′-dichloro-biphenyl-3-sulfonyl)-5-methylsulfanyl-thiophene-2-carboxamidine], the Ki was 6 to 23 nM.
For the compound `CSc1sc(C(=N)N)cc1S(=O)(=O)c1cccc(-c2cccc(C(C)=O)c2)c1` [Example 101, 4-(3′-acetyl-biphenyl-3-sulfonyl)-5-methylsulfanyl-thiophene-2-carboxamidine], the Ki fell in the range of 6 to 23 nM.
As to `CCOC(=O)c1cccc(-c2cccc(S(=O)(=O)c3cc(C(=N)N)sc3SC)c2)c1` [Example 102, 3′-(5-carbamimidoyl-2-methylsulfanyl-thiophene-3-sulfonyl)-biphenyl-3-carboxylic acid ethyl ester], the inhibitory constant (Ki) lay in the range of 6 to 23 nM.
`CSc1sc(C(=N)N)cc1S(=O)(=O)c1cccc(-c2cccc(C(=O)N(C)C)c2)c1` [Example 103, 3′-(5-carbamimidoyl-2-methylsulfanyl-thiophene-3-sulfonyl)-biphenyl-3-carboxylic acid dimethylamide] returned a Ki of 6 to 23 nM.
`CSc1sc(C(=N)N)cc1S(=O)(=O)c1cccc(-c2cccc(C(N)=O)c2)c1` [Example 104, 3′-(5-carbamimidoyl-2-methylsulfanyl-thiophene-3-sulfonyl)-biphenyl-3-carboxylic acid amide]: the inhibitory constant (Ki) was in the range of 6 to 23 nM.
Take `CSc1sc(C(=N)N)cc1S(=O)(=O)c1cccc(-c2ccc3[nH]cnc3c2)c1` [Example 106, 4-[3-(1H-benzoimidazol-5-yl)-benzenesulfonyl]-5-methylsulfanyl-thiophene-2-carboxamidine]: the inhibitory constant (Ki) fell in the range of 6 to 23 nM.
As to `CSc1sc(C(=N)N)cc1S(=O)(=O)c1cccc(-c2ccccc2N)c1` [Example 107, 4-(2′-amino-biphenyl-3-sulfonyl)-5-methylsulfanyl-thiophene-2-carboxamidine], the Ki is 6 to 23 nM.
`CSc1sc(C(=N)N)cc1S(=O)(=O)c1cc(-c2ccccc2C)c2ncn(C)c2c1` [Example 108, 5-methylsulfanyl-4-(3-methyl-7-o-tolyl-3H-benzoimidazole-5-sulfonyl)-thiophene-2-carboxamidine trifluoroacetate] returned an inhibitory constant (Ki) of 6 to 23 nM.
With `CSc1sc(C(=N)N)cc1S(=O)(=O)c1cc(-c2ccccc2C)c2nc[nH]c2c1` [Example 110, 5-methylsulfanyl-4-(7-o-tolyl-3H-benzoimidazole-5-sulfonyl)-thiophene-2-carboxamidine trifluoroacetate], the Ki is 6 to 23 nM.
Under `COc1cccc(S(=O)(=O)c2cc(C(=N)N)sc2SC)c1` [Example 114, 4-(3-Methoxy-benzenesulfonyl)-5-methylsulfanyl-thiophene-2-carboxamidine hydrochloride HCl] stands 6 to 23 nM; under `CSc1sc(C(=N)N)cc1S(=O)(=O)c1ccc(C)c(-c2ccccc2)c1` [Example 115, 4-(6-Methyl-biphenyl-3-sulfonyl)-5-methylsulfanyl-thiophene-2-carboxamidine trifluoroacetate], 6 to 23 nM.
Regarding `CSc1sc(C(=N)N)cc1S(=O)(=O)c1cccc(Oc2ccccc2)c1` [Example 116, 5-Metylsulfanyl-4-(3-phenoxy-benzenesulfonyl)-thiophene-2-carboxamidine hydrochloride salt], the inhibitory constant (Ki) was 6 to 23 nM.
The compound `CSc1sc(C(=N)N)cc1S(=O)(=O)c1cccc(-c2ccccc2)c1` [Example 117, 4-(Biphenyl-3-sulfonyl)-5-methylsulfanyl-thiophene-2-carboxamidine trifluoroacetate] came in with an inhibition constant Ki of 6 to 23 nM.
With `CSc1sc(C(=N)N)cc1S(=O)(=O)c1cnc(Cl)c(Br)c1` [Example 118, 4-(5-Bromo-6-chloro-pyridine-3-sulfonyl)-5-methylsulfanyl-thiophene-2-carboxamidine] the figure was 6 to 23 nM; with `CSc1sc(C(=N)N)cc1S(=O)(=O)c1cnc(N)c(Br)c1` [Example 119, 4-(6-Amino-5-bromo-pyridine-3-sulfonyl)-5-methylsulfanyl-thiophene-2-carboxamidine], 6 to 23 nM.
On to `CSc1sc(C(=N)N)cc1S(=O)(=O)c1cnc(N)c(-c2ccccc2C)c1` [Example 121, 4-(6-Amino-5-o-tolyl-pyridine-3-sulfonyl)-5-methylsulfanyl-thiophene-2-carboxamidine], for which the Ki fell in the range of 6 to 23 nM.
Under `CSc1sc(C(=N)N)cc1S(=O)(=O)c1cccc(-c2c(C)cc(Cl)cc2NC(=O)CCCS(C)(=O)=O)c1` [Example 135, N-[3′-(5-Carbamimidoyl-2-methylsulfanyl-thiophene-3-sulfonyl)-4-chloro-6-methyl-biphenyl-2-yl]-4-methanesulfonyl-butyramide trifluoroacetate] stands 6 to 23 nM.
